Measured values as given in US20050004044A1, “Use of orsaponin [3beta, 16beta, 17 alpha-trihydroxycholost-5-en-22-one 16-0-(2-0-4-methoxybenzoyl-beta-D-xylopyranosyl)-(1->3)-(2-0-acetyl-alpha-L-arabinopyranoside)] or OSW-1 and its derivatives for cancer therapeutics” (priority 2003, published 2005).

Columns and labels:
[1] = tested on: human ovarian cancer SKOV3 cells; assay: Survival of nude mice inoculated i.p. with SKOV3; assay type: in vivo; settings: i.p. 10 μg/kg/day, 5 days/week for two weeks
Experimental: FIG. 12. Nude mice were inoculated with human ovarian cancer SKOV3 cells (2×10^6/mouse, i.p., 10 mice/group). Drug treatment started on day 6 after tumor inoculation. OSW-1 was given by i.p. injection, 10 μg/kg/day, 5 days/week for two weeks.
Thus, nude mice were inoculated with human ovarian cancer SKOV3 cells at a concentration of 2×10^6/mouse, by the intraperitoneal route (i.p.) with 10 mice/group. Treatment with OSW-1 was started on day 6 after tumor inoculation. The control group was treated with saline. OSW-1 was given by i.p. injection, 10 μg/kg/day, 5 days/week for two weeks. […] When severe tumor burden and moribund signs appeared, euthanasia for the affected animal was performed according to IACUC standards.

[2] = tested on: HCT116 p53−/− colon cancer cells; assay: Colony formation assay, HCT116 p53−/−; assay type: cell-based, human
Experimental: FIG. 6. Effect of OSW-1 on cell survival in human colon carcinoma cells. Human colon cancer cells with wild-type p53 (HCT116 p53+/+) and p53-null (HCT116 p53−/−) were treated with the indicated concentrations of OSW-1, and cell survival was measured by colony formation assay.
OSW-1 Inhibits Growth of Human Colon Cancer Cells. […] The HCT116 colon cancer cells with wild-type p53 (p53+/+) and p53-null (p53−/−) were treated with the various concentrations of orsaponin (OSW-1), and cell survival was measured by colony formation assay.

[3] = tested on: C19 cells (ML-1 mutant with mitochondrial respiration defect); assay: Mitochondrial transmembrane potential (rhodamine-123), C19; assay type: cell-based, human; settings: C19, 1 nM
Experimental: FIG. 11. Effect of orsaponin (OSW-1) on mitochondrial transmembrane potential ML-1 cells. The parental ML-1 line and its mutant with mitochondrial respiration defect, clone C19, were incubated with 1 nM OSW-1 for the indicated times. Change in mitochondrial transmembrane potential was measured by cytometry analysis, using rhodamine-123 as a potential-sensitive fluorescent probe.
3. Analysis of the Mitochondrial Transmembrane Potential. To evaluate the role of mitochondrial respiration in the cytotoxicity of OSW-1, changes in the potential of mitochondrial membrane were analyzed. Following the treatment of cells with OSW-1 for different time periods, cells were incubated with rhodamine-123 which is a potential-sensitive dye. Cytometric analysis was used to record changes in mitochondrial potential. […]
The effect of OSW-1 on mitochondrial transmembrane potential of ML-1 cells and the corresponding mitochondrial respiration defective mutant cell line C19 were analyzed by incubating with 1 nM OSW-1 for 4, 16 and 24 hours. Change in mitochondrial transmembrane potential was measured by cytometry analysis, using rhodamine-123 as a potential-sensitive fluorescent probe and are depicted in FIG. 11.

[4] = tested on: human promyelocytic leukemia HL-60 cells; settings: Mimaki et al., 1997; read-out: IC50, cytostatic activity against HL-60; cited from earlier work
[5] = tested on: malignant glioma U87-MG cells; assay: MTT cell growth inhibition, U87-MG glioma; assay type: cell-based, human
Experimental: (§1) 1. MTT Assays. For these assays either cancer cell lines were used. Alternatively, mononuclear cells from peripheral blood samples of CLL patients or normal donors were separated by Ficoll Hipaque fractionation and resuspended in DMEM complete medium. Malignant cells from various human cell lines (usually at 5×10^4 cells/ml) or mononuclear cells from peripheral blood of leukemia patients and healthy donors (1×10^6 cells/ml) were incubated in either αMEM or RPMI 1640 with or without various concentrations of OSW-1 in the range of 0-10 nM. Each experimental condition was done in triplicate. After the indicated number of days (usually 3 days or 72 hours) of exposure to OSW-1, cell survival was assessed by the addition of the MTT dye to the wells. The MTT dye changes its color depending on the presence of live cells in the well. Survival of cells under orsaponin treatment was evaluated as a percentage of control cell growth. Alternatively, one can also use the dye trypan-blue which penetrates dead cells thereby allowing one to count live cells under the microscope and estimating percentage survival.
To test the therapeutic selectivity of Orsaponin and 17-deoxyorsaponin, their effect on human brain tumor cells (U87 malignant glioma) and normal human astrocytes were compared. The normal human astrocytes were previously immortalized by transfection with hTER to allow a long-term culture in vitro. The antiproliferative effect of Orsaponin in human malignant glioma cells (U87-MG) and normal human astrocytes was examined. Cells were incubated with various concentrations of Orsaponin for 72 h. Cell growth inhibition was measured by MTT assay (FIG. 21).

[6] = tested on: C6F cells (HL-60 mutant with mitochondrial respiration defect); assay: Apoptosis and cell cycle, respiration-deficient C6F; assay type: cell-based, human; settings: 0.5 nM, 16 and 24 h
Experimental: FIG. 9. Mitochondrial respiration plays an important role in the cytotoxic action of Orsaponin (OSW-1). The parental HL-60 line and its mutant with mitochondrial respiration defect, clone C6F, were incubated with 0.5 nM OSW-1 for the indicated times. Apoptosis and change in cell cycle distribution were assayed by flow cytometry analysis.
Two cancer cell lines and their mutant mitochondrial respiration deficient clones were analyzed for apoptosis and changes in cell-cycle following exposure to OSW-1. Thus, the parental HL-60 leukemia line and its mitochondrial respiration defective mutant C6F were incubated with 0.5 nM OSW-1 for 0, 8, 16 and 24 hours and apoptosis and change in cell cycle distribution were assayed by flow cytometry analysis. […] Thus, it is clear that the respiration defective cells are resistant to the effects of OSW-1. Consistent with these observations, apoptosis was also detected by DNA fragmentation assays performed at 24 and 32 hours after HL-60 cells are treated with OSW-1; DNA fragmentation was not observed in C6F cells even at 32 hours of drug incubation (data not shown).

ML-1 leukemia cells = assay: MTT cell growth inhibition, ML-1; assay type: cell-based, human; settings: Homo sapiens, 72 h, ML-1, 72 h
Experimental: as §1
Anticancer activities of Orsaponin and 17-deoxyorsaponin were examined in human leukemia cells (ML-1) and human lymphoma cells (Raji). Cells were incubated with various concentrations of Orsaponin and 17-deoxyorsaponin for 72 h, and cell growth inhibition was measured by MTT assay.
The effect of 17-deoxyorsaponin in human ovarian cancer cells was determined. SKOV3 ovarian cancer cells were incubated with various concentrations of 17-deoxyorsaponin for 72 h. Cell growth inhibition was measured by MTT assay (FIG. 17). […] The effect of 17-deoxyorsaponin in human acute myeloid leukemia cells was also examined. ML-1 leukemia cells were incubated with various concentrations of 17-deoxyorsaponin for 72 h and cell growth inhibition was measured using the MTT assay (FIG. 18).

SMILES: COc1ccc(C(=O)OC2C(OC3C(O)COC(O[C@H]4C[C@H]5[C@@H]6CC=C7C[C@@H](O)CC[C@]7(C)[C@H]6CC[C@]5(C)[C@@]4(O)[C@H](C)C(=O)CCC(C)C)C3OC(C)=O)OCC(O)C2O)cc1 (stereo partly drawn) [OSW-1, 3β, 16β, 17 α-trihydroxycholost-5-en-22-one 16-O-(2-O-4-methoxybenzoyl-β-D-xylopyranosyl)-(1->3)-(2-O-acetyl-α-L-arabinopyranoside)]
- Survival % ([1]; 30 days): 100%
- Survival % ([1]; 60 days): 50%
- cell survival, colony formation [2]: effectively kill the p53−/− cells
- change in mitochondrial transmembrane potential [3]: loss of mitochondrial transmembrane potential in only a small portion the cells
- IC50 [4]: 0.1 to 0.3 nM
- IC50 ([5]; Homo sapiens, U-87 MG, U87-MG, 72 h, MTT): < 0.1 nM
- sensitivity of glioma cells compared with normal astrocytes ([5]; U87-MG vs normal human astrocytes): much more sensitive
- apoptosis [6]: does not result in significant apoptosis
- IC50 (ML-1 leukemia cells): < 0.1 nM
